Values of other authors as cited in patent publication US20120237456A1, “ORAL COMPOSITIONS CONTAINING EXTRACTS OF GARCINIA MANGOSTANA L. AND RELATED METHODS” (Colgate-Palmolive Company, priority 2009, published 2012).

Tests used:
cAMP phosphodiesterase = settings: reported by Chairungsrilerd and Takeuchi et al., 1996
serotonin receptors = settings: Chairungsrilerd, Furukawa et al., 1996 and 1998
COX 1 = COX 1 (Homo sapiens, UniProt P23219); settings: Nakatani et al., 2002 and 2004
[1] = compared with BHA and a-tocopherol (vitamin E); Yoshikawa et al., 1994; Fan and Su, 1997
DNA topoisomerase = settings: Tosa et al., 1997

Sequence of COX 1 (P23219 24-599): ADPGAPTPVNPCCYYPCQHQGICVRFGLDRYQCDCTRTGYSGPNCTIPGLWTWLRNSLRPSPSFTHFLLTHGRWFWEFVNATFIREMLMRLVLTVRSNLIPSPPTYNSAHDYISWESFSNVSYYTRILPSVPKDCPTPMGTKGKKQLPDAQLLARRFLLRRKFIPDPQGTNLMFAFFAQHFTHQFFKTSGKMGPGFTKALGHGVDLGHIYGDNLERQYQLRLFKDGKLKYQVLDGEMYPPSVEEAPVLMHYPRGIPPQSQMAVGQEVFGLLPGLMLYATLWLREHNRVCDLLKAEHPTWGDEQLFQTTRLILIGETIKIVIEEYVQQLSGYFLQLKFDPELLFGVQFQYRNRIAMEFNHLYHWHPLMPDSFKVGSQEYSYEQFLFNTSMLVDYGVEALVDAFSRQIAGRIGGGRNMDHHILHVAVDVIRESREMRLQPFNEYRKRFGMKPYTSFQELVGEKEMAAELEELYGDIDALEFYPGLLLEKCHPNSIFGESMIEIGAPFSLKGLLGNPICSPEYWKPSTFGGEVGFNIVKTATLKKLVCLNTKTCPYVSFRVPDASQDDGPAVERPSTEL

Row | inhibition of cAMP phosphodiesterase (cAMP phosphodiesterase) | Structure (SMILES) | antagonism of serotonin receptors (serotonin receptors) | inhibition of the activity of cyclooxygenase COX 1 (COX 1) | antioxidative activity [1] | inhibition of DNA topoisomerase (DNA topoisomerase)
1 | strong inhibition | COc1c(O)cc2oc3cc4c(c(O)c3c(=O)c2c1CC=C(C)C)CC(O)C(C)(C)O4 (centres unmarked) [Mangostanol] | – | – | – | –
2 | – | CC(C)=CCc1c(O)cc2oc3cc(O)c(O)c(CC=C(C)C)c3c(=O)c2c1O [γ-mangostin] | antagonist | directly inhibit | more potent antioxidative activity than BHA | inhibit
